The record followed here is article PMC7893793 (ACS Omega, 2021).

Each structure is given as a SMILES string.

Data set [1] is described as follows: Pharmacokinetic study in rats after oral administration of PbR extract. The format is in vivo, rat. As to conditions: for AUC(0-inf) / AUC(0-t) / Cmax / MRT inf / MRT last / Tmax / half-life: male, Wistar, plasma, po, 5 g/kg; for AUC(0-inf) / AUC(0-t) / Cmax / MRT inf / MRT last / Tmax / half-life / absorption characteristics: rat; for absorption characteristics: oral administration of PbR.

The nature of data set [2]: Stability of analytes in rat plasma samples. Particulars: three freeze–thaw (−80 °C–room temperature) cycles, low, medium and high QC samples. The format is in vitro ADME.

A word on the AUC(0-inf): it is total exposure, with the tail of the curve extrapolated. Higher therefore signals high exposure. What is called AUC(0-t) is the area under the concentration-time curve up to a stated or last time point. A higher AUC(0-t) goes with more exposure. By Cmax is commonly meant the highest concentration seen after dosing. What is called MRT inf is a mean duration of stay, worked out from the concentration-time curve. The term MRT last denotes the average time that molecules of a dose stay in the body. In general, Tmax refers to the time from dosing to the highest level. In general, half-life refers to how long it takes for the measured level to halve. A high value points to slow decline.

In data set [1], `COC(=O)C1=CO[C@@H](O[C@@H]2O[C@H](CO)[C@@H](O)[C@H](O)[C@H]2O)[C@H]2[C@@H]1[C@H](O)C[C@]2(C)OC(C)=O` [barlerin] displayed an AUC(0-inf) of 63.2 ± 17.4 ng·h/mL, an AUC(0-t) of 55.1 ± 15.5 ng·h/mL, a Cmax of 24.4 ± 8.4 ng/mL and an MRT inf of 4.65 ± 1.43 h. For the same compound, in data set [1], the MRT last is 3.12 ± 0.64 h, the Tmax worked out at 0.33 ± 0.13 h, the half-life was 3.33 ± 1.21 h and the absorption characteristics entry is recorded as “good absorption characteristics”. The “freeze–thaw stability in plasma samples” value in data set [2] is “No significant degradation”.
For `C[C@@H]1O[C@@H](O[C@@H]2[C@@H](O)[C@H](OCCc3ccc(O)c(O)c3)O[C@H](COC(=O)/C=C/c3ccc(O)c(O)c3)[C@H]2O)[C@H](O)[C@H](O)[C@H]1O` [isoacteoside], the “detection in rat plasma” value in data set [1] (after oral administration of PbR at a dose of 0.5 g/100 g) is reported as “neither of these were detected”.
`COC(=O)C1=CO[C@@H](O[C@@H]2O[C@H](CO)[C@@H](O)[C@H](O)[C@H]2O)[C@H]2[C@@H]1[C@H](O)C[C@]2(C)O` [shanzhiside methyl ester]: in data set [1], the AUC(0-inf) was found to be 159 ± 34.2 ng·h/mL, the AUC(0-t) is 141 ± 33.4 ng·h/mL, the Cmax came out at 41.6 ± 13.8 ng/mL and the MRT inf is 5.28 ± 0.73 h. For the same compound, in data set [1], the MRT last is 3.84 ± 0.61 h, the time to peak (Tmax) stood at 0.7 ± 0.14 h, the half-life was 3.59 ± 1.05 h and the absorption characteristics result was “good absorption characteristics”. The “freeze–thaw stability in plasma samples” value in data set [2] is on record as “No significant degradation”.
